Source: US6555114B1, “Immunodominant human T-cell epitopes of hepatitis C virus” (Innogenetics N.V., priority 1993, dated 2003)

System: PBMC from 32 patients with chronic HCV
Assay: T cell proliferation assay ((3H)-thymidine incorporation, stimulation index) with PBMC of chronic HCV patients
Type: cell-based, human
Conditions: for LPR in αIFN responders (summary of Table 7): both αIFN responders tested; for number of patients that recognized the single peptide: 8 proliferative responders to pools 2 and/or 3 among 11 interferon-responder HCV patients; for lymphoproliferative response (LPR) to peptide pools and single peptides: IFN responder, LPR to pools 2 and/or 3
[1] = patient 626, αIFN responder (R), week 14 of αIFN therapy
[2] = patient 627, αIFN non-responder (NR), week 54 of αIFN therapy
[3] = patient 636, αIFN responder (R), week 28 of αIFN therapy
[4] = patient 637, αIFN non-responder (NR), week 45 of αIFN therapy
[5] = patient 615, pools 2 assays, single peptides 1 assay
[6] = patient 620, αIFN non-responder (NR), week 20 of αIFN therapy
[7] = patient 632, pools 8 assays, single peptides 4 assays
[8] = patient 634, pools 2 assays, single peptides 1 assay
[9] = patient 639, pools 4 assays, single peptides 2 assays
[10] = patient 618, pools 4 assays, single peptides 1 assay
[11] = patient 621, pools 4 assays, single peptides 1 assay
[12] = patient 626, pools 9 assays, single peptides 5 assays

Substance	LPR in αIFN responders (summary of Table 7)	stimulation index (SI), T-cell recognition [1]	stimulation index (SI), T-cell recognition [2]	stimulation index (SI), T-cell recognition [3]	stimulation index (SI), T-cell recognition [4]	number of patients that recognized the single peptide	lymphoproliferative response (LPR) to peptide pools and single peptides (patient 604, pools 2 assays, single peptides 1 assay)	lymphoproliferative response (LPR) to peptide pools and single peptides [5]	stimulation index (SI), T-cell recognition [6]	lymphoproliferative response (LPR) to peptide pools and single peptides [7]	LPR in αIFN non-responders (summary of Table 7) (two αIFN non-responders)	lymphoproliferative response (LPR) to peptide pools and single peptides [8]	lymphoproliferative response (LPR) to peptide pools and single peptides [9]	lymphoproliferative response (LPR) to peptide pools and single peptides [10]	lymphoproliferative response (LPR) to peptide pools and single peptides [11]	lymphoproliferative response (LPR) to peptide pools and single peptides [12]
GRTWAQPGYPWPLYGNEGCG (hepatitis C virus) [C13]	highest LPR	4.4	— (Only SI equal or greater than 3 are shown.)	6.3	— (Only SI equal or greater than 3 are shown.)	–	–	–	–	–	–	–	–	–	–	–
LMGYIPLVGAPLGGAARALA (hepatitis C virus) [C23]	–	— (Only SI equal or greater than 3 are shown.)	— (Only SI equal or greater than 3 are shown.)	— (Only SI equal or greater than 3 are shown.)	— (Only SI equal or greater than 3 are shown.)	3	+ (significant when it induces SI's 3 in at least half of the assays performed)	+ (significant when it induces SI's 3 in at least half of the assays performed)	4.1	+ (significant when it induces SI's 3 in at least half of the assays performed)	high PLR	–	–	–	–	–
LYGNEGCGWAGWLLSPRGSR (hepatitis C virus) [C15]	–	— (Only SI equal or greater than 3 are shown.)	— (Only SI equal or greater than 3 are shown.)	— (Only SI equal or greater than 3 are shown.)	— (Only SI equal or greater than 3 are shown.)	–	–	–	–	–	–	–	–	–	–	–
PTDPRRRSRNLGKVIDTLTC (hepatitis C virus) [C19]	highest LPR	— (Only SI equal or greater than 3 are shown.)	— (Only SI equal or greater than 3 are shown.)	7.1	— (Only SI equal or greater than 3 are shown.)	3	–	–	–	+ (significant when it induces SI's 3 in at least half of the assays performed)	–	+ (significant when it induces SI's 3 in at least half of the assays performed)	+ (significant when it induces SI's 3 in at least half of the assays performed)	–	–	–
VLEDGVNYATGNLPGCSFSI (hepatitis C virus) [C27]	highest LPR	8.2	— (Only SI equal or greater than 3 are shown.)	5.8	— (Only SI equal or greater than 3 are shown.)	6	–	+ (significant when it induces SI's 3 in at least half of the assays performed)	— (Only SI equal or greater than 3 are shown.)	+ (significant when it induces SI's 3 in at least half of the assays performed)	–	+ (significant when it induces SI's 3 in at least half of the assays performed)	+ (significant when it induces SI's 3 in at least half of the assays performed)	+ (significant when it induces SI's 3 in at least half of the assays performed)	+ (significant when it induces SI's 3 in at least half of the assays performed)	+ (significant when it induces SI's 3 in at least half of the assays performed)
GGAARALAHGVRVLEDGVNY (hepatitis C virus) [C25]	highest LPR	6	— (Only SI equal or greater than 3 are shown.)	9.7	— (Only SI equal or greater than 3 are shown.)	5	–	–	— (Only SI equal or greater than 3 are shown.)	+ (significant when it induces SI's 3 in at least half of the assays performed)	–	–	+ (significant when it induces SI's 3 in at least half of the assays performed)	+ (significant when it induces SI's 3 in at least half of the assays performed)	+ (significant when it induces SI's 3 in at least half of the assays performed)	+ (significant when it induces SI's 3 in at least half of the assays performed)
LPGCSFSIFLLALLSCLTVP [C29]	–	— (Only SI equal or greater than 3 are shown.)	— (Only SI equal or greater than 3 are shown.)	— (Only SI equal or greater than 3 are shown.)	— (Only SI equal or greater than 3 are shown.)	–	–	–	— (Only SI equal or greater than 3 are shown.)	–	–	–	–	–	–	–
Tetanus toxoid [TT, reference compound]	–	14.5	19.1	3.6	4.2	–	–	–	4.1	–	–	–	–	–	–	–
